Reference: patent US11712438B2, “Phenyl derivatives as PGE2 receptor modulators” (IDORSIA PHARMACEUTICALS LTD, priority 2017, dated 2023)

Tests used:
Assay in all cases: cell-based
PTGER2 (EP2) = PTGER2 (EP2) (Homo sapiens, UniProt P43116)
PTRGER4 (EP4) = PTRGER4 (EP4) (Homo sapiens, UniProt P35408);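 further: assay plate preincubated 15 min at 37 °C, after which PGE2 was added at 20 nM final and incubation continued 120 min at 37 °C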
EP2 = EP2 (Homo sapiens, UniProt P43116);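 further: SF295 glioblastoma cells with endogenous EP2 only, PGE2-stimulated cAMP accumulation read by HTRF competitive immunoassay, 45 min pre-incubation then 30 min at room temperature, IBMX in buffer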
Sequence of EP2 (P43116 whole entry): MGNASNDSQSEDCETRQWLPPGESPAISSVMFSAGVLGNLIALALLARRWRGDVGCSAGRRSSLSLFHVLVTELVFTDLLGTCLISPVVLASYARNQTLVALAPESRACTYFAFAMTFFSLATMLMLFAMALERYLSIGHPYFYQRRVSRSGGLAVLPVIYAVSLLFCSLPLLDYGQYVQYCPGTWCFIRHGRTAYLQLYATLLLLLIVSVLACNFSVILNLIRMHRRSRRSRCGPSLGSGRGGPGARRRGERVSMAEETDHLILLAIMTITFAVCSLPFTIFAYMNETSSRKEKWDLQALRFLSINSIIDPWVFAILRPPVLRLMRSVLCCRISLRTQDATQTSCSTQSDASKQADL
Description: The antagonistic activities of the compounds of formula (I) on the EP2 and EP4 receptors are also determined in accordance with the following experimental method.
Human tumor cell lines expressing endogenously either EP4 or EP2 are used and cAMP accumulation in cells upon PGE2 stimulation is monitored. SF295 glioblastoma cells express high endogenous EP2 and no EP4,whereas BT549 breast cancer cells, express high endogenous EP4 levels and very low EP2 levels.
As a detection method for cAMP the HTRF (homogeneous time resolved fluorescence) Cisbio kit (HTRF cAMP dynamic 2 kit 20′000 tests Cisbio Cat. #62AM4PEC) was used, which is based on a competitive immunoassay using a Cryptate-labeled anti-cAMP antibody and d2-labeled cAMP. Native cAMP produced by cells or unlabeled cAMP (for the standard curve) compete with exogenously added d2-labeled cAMP (acceptor) for binding to monoclonal anti-cAMP-Eu3+ Cryptate (donor). A FRET signal (Fluorescence Resonance Energy Transfer) is obtained only if the labeled anti-cAMP antibody binds the d2 labelled cAMP, thus the specific signal (i.e. energy transfer) is inversely proportional to the concentration of cAMP in the standard or sample.
The SF295 cells (NCI/No. 0503170) are detached from culture dishes with a cell dissociation buffer (Invitrogen, 13151-014), and collected in growing medium (GM: RPM11640 (Invitrogen 21875)/10% FCS, 1% Penicilin/streptomycin). Cells are counted washed and resuspended in assay buffer (AB; HBSS, 20 mM HEPES, 0.2% BSA; 2 mM IBMX). 4′000 cells in 5 μl of AB are seeded per well of a small volume 384 well plate (black with flat bottom, Greiner 784076).
PGE2 (Cayman 14010, stock solution: 750 in DMSO) is used as agonist at 75 nM final concentration, corresponding to EC80.
Two point five microliters of diluted compounds are transferred into the assay plate. Plate is pre-incubated 45 minutes at room temperature. Subsequently, 2.5 microliters of PGE2 (final conc. 75 nM) are transferred into the assay plate. Plate is incubated 30 minutes at room temperature.
For each compound concentration the percentage of cAMP compared to DMSO control value as average±STDEV (each concentration is measured in duplicate) is calculated.

EP4 = EP4 (Homo sapiens, UniProt P35408);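 further: inhibition of PGE2-evoked (6 nM) cAMP accumulation in BT549 breast cancer cells endogenously expressing EP4, cAMP read by HTRF competitive immunoassay after 30 min at room temperature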
Sequence of EP4 (P35408 whole entry): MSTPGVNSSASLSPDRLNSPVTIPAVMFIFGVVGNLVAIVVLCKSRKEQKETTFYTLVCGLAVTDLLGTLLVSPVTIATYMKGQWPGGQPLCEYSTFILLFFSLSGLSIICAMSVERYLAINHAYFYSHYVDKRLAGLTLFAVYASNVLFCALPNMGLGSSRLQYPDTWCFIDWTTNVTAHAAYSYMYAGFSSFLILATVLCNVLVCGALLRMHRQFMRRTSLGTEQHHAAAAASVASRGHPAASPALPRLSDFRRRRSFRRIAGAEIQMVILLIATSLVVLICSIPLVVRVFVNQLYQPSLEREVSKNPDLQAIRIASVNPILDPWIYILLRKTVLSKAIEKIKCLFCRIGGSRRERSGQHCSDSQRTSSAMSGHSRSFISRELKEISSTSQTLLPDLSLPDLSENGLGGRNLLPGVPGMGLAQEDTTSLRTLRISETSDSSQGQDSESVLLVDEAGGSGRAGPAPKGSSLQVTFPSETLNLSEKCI

Sequence of PTGER2 (EP2) (P43116 whole entry): as the sequence (P43116 whole entry) above
Sequence of PTRGER4 (EP4) (P35408 whole entry): as the sequence (P35408 whole entry) above

CCOc1cc(-c2cc(NCCc3cc(Br)ccc3OC)ncn2)sc1-c1noc(=O)[nH]1 [Example 120, 3-(5-{6-[2-(5-Bromo-2-methoxy-phenyl)-ethylamino]-pyrimidin-4-yl}-3-ethoxy-thiophen-2yl)-[1,2,4]oxadiazol-5(4H)-one]
IC50 (PTGER2 (EP2)): 35 nM | IC50 (PTRGER4 (EP4)): 21 nM | IC50 (EP2): 13 nM | IC50 (EP4): 69 nM

CCOc1cc(-c2cc(NCCc3ccc(Cl)c(Cl)c3)ncn2)sc1-c1noc(=O)[nH]1 [Example 121, 3-(5-{6-[2-(3,4-Dichloro-phenyl)-ethylamino]-pyrimidin-4-yl}-3-ethoxy-thiophen-2-yl)-[1,2,4]oxadiazol-5(4H)-one]
IC50 (PTGER2 (EP2)): 66 nM | IC50 (PTRGER4 (EP4)): 9 nM | IC50 (EP2): 60 nM | IC50 (EP4): 42 nM

CCOc1cc(-c2cc(NCCc3ccc(Cl)cc3Cl)ncn2)sc1-c1noc(=O)[nH]1 [Example 123, 3-(5-{6-[2-(2,4-Dichloro-phenyl)-ethylamino]-pyrimidin-4-yl}-3-ethoxy-thiophen-2-yl)-[1,2,4]oxadiazol-5(4H)-one]
IC50 (PTGER2 (EP2)): 29 nM | IC50 (PTRGER4 (EP4)): 27 nM | IC50 (EP2): 32 nM | IC50 (EP4): 19 nM

CCOc1cc(-c2cc(NCCc3ccc(Br)cc3F)ncn2)sc1-c1noc(=O)[nH]1 [Example 125, 3-(5-{6-[2-(4-Bromo-2-fluoro-phenyl)-ethylamino]-pyrimidin-4-yl}-3-ethoxy-thiophen-2-yl)-[1,2,4]oxadiazol-5(4H)-one]
IC50 (PTGER2 (EP2)): 11 nM | IC50 (PTRGER4 (EP4)): 3 nM | IC50 (EP2): 49 nM | IC50 (EP4): 5 nM

CCOc1cc(-c2cc(NCCc3ccc(Br)cc3OC)ncn2)sc1-c1noc(=O)[nH]1 [Example 126, 3-(5-{6-[2-(4-Bromo-2-methoxy-phenyl)-ethylamino]-pyrimidin-4-yl}-3-ethoxy-thiophen-2yl)-[1,2,4]oxadiazol-5(4H)-one]
IC50 (PTGER2 (EP2)): 22 nM | IC50 (PTRGER4 (EP4)): 7 nM | IC50 (EP2): 74 nM | IC50 (EP4): 20 nM

CCOc1cc(-c2cc(NCCc3ccc(Br)cc3C)ncn2)sc1-c1noc(=O)[nH]1 [Example 127, 3-(5-{6-[2-(4-Bromo-2-methyl-phenyl)-ethylamino]-pyrimidin-4-yl}-3-ethoxy-thiophen-2-yl)-[1,2,4]oxadiazol-5(4H)-one]
IC50 (PTGER2 (EP2)): 29 nM | IC50 (PTRGER4 (EP4)): 14 nM | IC50 (EP2): 129 nM | IC50 (EP4): 47 nM

CCOc1cc(-c2cc(NCCc3ccc(Br)cc3)ncn2)sc1-c1noc(=O)[nH]1 [Example 130, 3-(5-{6-[2-(4-Bromo-phenyl)-ethylamino]-pyrimidin-4-yl}-3-ethoxy-thiophen-2-yl)-[1,2,4]oxadiazol-5(4H)-one]
IC50 (PTGER2 (EP2)): 22 nM | IC50 (PTRGER4 (EP4)): 4 nM | IC50 (EP2): 63 nM | IC50 (EP4): 24 nM

CCOc1cc(-c2cc(NCCc3ccc(Br)cc3)ncn2)sc1-c1nnn[nH]1 [Example 131, [2-(4-Bromo-phenyl)-ethyl]-{6-[4-ethoxy-5-(1H-tetrazol-5-yl)-thiophen-2-yl]-pyrimidin-4-yl}-amine]
IC50 (PTGER2 (EP2)): 18 nM | IC50 (PTRGER4 (EP4)): 3 nM | IC50 (EP2): 54 nM | IC50 (EP4): 11 nM

O=c1[nH]c(-c2sc(-c3cc(NCCc4c(F)cc(Br)cc4F)ncn3)cc2C(F)(F)F)no1 [Example 133, 3-(5-{6-[2-(4-Bromo-2,6-difluoro-phenyl)-ethylamino]-pyrimidin-4-yl}-3-trifluoromethyl-thiophen-2-yl)-[1,2,4]oxadiazol-5(4H)-one]
IC50 (PTGER2 (EP2)): 13 nM | IC50 (PTRGER4 (EP4)): 13 nM | IC50 (EP2): 92 nM | IC50 (EP4): 44 nM

O=c1[nH]c(-c2ccc(-c3cc(NCCc4c(F)cc(Br)cc4F)ncn3)s2)no1 [Example 135, 3-(5-{6-[2-(4-Bromo-2,6-difluoro-phenyl)-ethylamino]-pyrimidin-4-yl}-thiophen-2-yl)-[1,2,4]oxadiazol-5(4H)-one]
IC50 (PTGER2 (EP2)): 26 nM | IC50 (PTRGER4 (EP4)): 8 nM | IC50 (EP2): 15 nM | IC50 (EP4): 34 nM

Cc1cc(-c2cc(NCCc3c(F)cc(Br)cc3F)ncn2)sc1-c1noc(=O)[nH]1 [Example 136, 3-(5-{6-[2-(4-Bromo-2,6-difluoro-phenyl)-ethylamino]-pyrimidin-4-yl}-3-methyl-thiophen-2-yl)-[1,2,4]oxadiazol-5(4H)-one]
IC50 (PTGER2 (EP2)): 18 nM | IC50 (PTRGER4 (EP4)): 6 nM | IC50 (EP2): 17 nM | IC50 (EP4): 18 nM

CCOc1cc(-c2cc(NCCc3c(F)cc(Br)cc3F)ncn2)sc1Cc1noc(=O)[nH]1 [Example 138, 3-(5-{6-[2-(4-Bromo-2,6-difluoro-phenyl)-ethylamino]-pyrimidin-4-yl}-3-ethoxy-thiophen-2-ylmethyl)-[1,2,4]oxadiazol-5(4H)-one]
IC50 (PTGER2 (EP2)): 34 nM | IC50 (PTRGER4 (EP4)): 130 nM | IC50 (EP2): 123 nM | IC50 (EP4): 247 nM

CCOc1cc(-c2cc(NCCc3ccc(Br)cc3)ncn2)sc1NC(N)=O [Example 146, (5-{6-[2-(4-Bromo-phenyl)-ethylamino]-pyrimidin-4-yl}-3-ethoxy-thiophen-2-yl)-urea]
IC50 (PTGER2 (EP2)): 39 nM | IC50 (PTRGER4 (EP4)): 14 nM | IC50 (EP2): 249 nM | IC50 (EP4): 189 nM

CCOc1nc(-c2cc(NCCc3c(F)cc(Br)cc3F)ncn2)sc1C(=O)O [Example 148, 2-{6-[2-(4-Bromo-2,6-difluoro-phenyl)-ethylamino]-pyrimidin-4-yl}-4-ethoxy-thiazole-5-carboxylic acid]
IC50 (PTGER2 (EP2)): 20 nM | IC50 (PTRGER4 (EP4)): 9 nM | IC50 (EP2): 19 nM | IC50 (EP4): 8 nM

CCc1nc(-c2cc(NCCc3c(F)cc(Br)cc3F)ncn2)sc1C(=O)O [Example 149, 2-{6-[2-(4-Bromo-2,6-difluoro-phenyl)-ethylamino]-pyrimidin-4-yl}-4-ethyl-thiazole-5-carboxylic acid]
IC50 (PTGER2 (EP2)): 199 nM | IC50 (PTRGER4 (EP4)): 43 nM | IC50 (EP2): 67 nM | IC50 (EP4): 73 nM

CCOc1nc(-c2cc(NCCc3c(F)cc(Br)cc3F)ncn2)sc1-c1noc(=O)[nH]1 [Example 150, 3-(2-{6-[2-(4-Bromo-2,6-difluoro-phenyl)-ethylamino]-pyrimidin-4-yl}-4-ethoxy-thiazol-5-yl)-[1,2,4]oxadiazol-5(4H)-one]
IC50 (PTGER2 (EP2)): 13 nM | IC50 (PTRGER4 (EP4)): 2 nM | IC50 (EP2): 15 nM | IC50 (EP4): 9 nM

CCc1nc(-c2cc(NCCc3c(F)cc(Br)cc3F)ncn2)sc1-c1noc(=O)[nH]1 [Example 151, 3-(2-{6-[2-(4-Bromo-2,6-difluoro-phenyl)-ethylamino]-pyrimidin-4-yl}-4-ethyl-thiazol-5-yl)-[1,2,4]oxadiazol-5(4H)-one]
IC50 (PTGER2 (EP2)): 69 nM | IC50 (PTRGER4 (EP4)): 3 nM | IC50 (EP2): 43 nM | IC50 (EP4): 29 nM

CCOc1cc(-c2cc(NCCc3c(F)cc(Br)cc3F)ncn2)sc1-c1nnc(O)o1 [Example 152, 5-(5-{6-[2-(4-bromo-2,6-difluoro-phenyl)-ethylamino]-pyrimidin-4-yl}-3-ethoxy-thiophen-2-yl)-[1,3,4]-oxadiazol-2-ol]
IC50 (PTGER2 (EP2)): 12 nM | IC50 (PTRGER4 (EP4)): 5 nM | IC50 (EP2): 9 nM | IC50 (EP4): 30 nM

CCOc1cc(-c2cc(NCCc3c(F)cc(Br)cc3F)ncn2)sc1C(=O)NS(C)(=O)=O [Example 154, N-(5-{6-[2-(4-Bromo-2,6-difluoro-phenyl)-ethylamino]-pyrimidin-4-yl}-3-ethoxy-thiophene-2-carbonyl)-methanesulfonamide]
IC50 (PTGER2 (EP2)): 13 nM | IC50 (PTRGER4 (EP4)): 33 nM | IC50 (EP2): 8 nM | IC50 (EP4): 66 nM

CCOc1cc(-c2cc(NCCc3c(F)cc(Br)cc3F)ncn2)sc1C(=O)NS(N)(=O)=O [Example 155, 5-(6-((4-Bromo-2,6-difluorophenethyl)amino)pyrimidin-4-yl)-3-ethoxy-N-sulfamoylthiophene-2-carboxamide]
IC50 (PTGER2 (EP2)): 12 nM | IC50 (PTRGER4 (EP4)): 35 nM | IC50 (EP2): 20 nM | IC50 (EP4): 62 nM

CCOc1cc(-c2cc(NCCc3c(F)cc(Br)cc3F)nc(C)n2)sc1-c1noc(=O)[nH]1 [Example 156, 3-(5-{6-[2-(4-Bromo-2,6-difluoro-phenyl)-ethylamino]-2-methyl-pyrimidin-4-yl}-3-ethoxy-thiophen-2-yl)-[1,2,4]oxadiazol-5(4H)-one]
IC50 (PTGER2 (EP2)): 9 nM | IC50 (PTRGER4 (EP4)): 31 nM | IC50 (EP2): 28 nM | IC50 (EP4): 16 nM

CCOc1cc(-c2cc(NCCc3ccc(Br)cc3)nc(C)n2)sc1-c1noc(=O)[nH]1 [Example 157, 3-(5-{6-[2-(4-Bromo-phenyl)-ethylamino]-2-methyl-pyrimidin-4-yl}-3-ethoxy-thiophen-2-yl)-[1,2,4]oxadiazol-5(4H)-one]
IC50 (PTGER2 (EP2)): 64 nM | IC50 (PTRGER4 (EP4)): 57 nM | IC50 (EP2): 99 nM | IC50 (EP4): 34 nM

CC(C)Oc1cc(-c2cc(NCCc3c(F)cc(Br)cc3F)ncn2)sc1-c1noc(=O)[nH]1 [Example 162, 3-(5-{6-[2-(4-Bromo-2,6-difluoro-phenyl)-ethylamino]-pyrimidin-4-yl}-3-isopropoxy-thiophen-2-yl)-[1,2,4]oxadiazol-5(4H)-one]
IC50 (PTGER2 (EP2)): 20 nM | IC50 (PTRGER4 (EP4)): 2 nM | IC50 (EP2): 46 nM | IC50 (EP4): 5 nM

CCCCOc1cc(-c2cc(NCCc3c(F)cc(Br)cc3F)ncn2)cc(F)c1C(=O)O [Example 167, 4-{6-[2-(4-Bromo-2,6-difluoro-phenyl)-ethylamino]-pyrimidin-4-yl}-2-butoxy-6-fluoro-benzoic acid]
IC50 (PTGER2 (EP2)): 42 nM | IC50 (PTRGER4 (EP4)): 431 nM | IC50 (EP2): 198 nM | IC50 (EP4): 1080 nM

O=C(O)c1ccc2[nH]c(-c3cc(NCCc4c(F)cc(Br)cc4F)ncn3)cc2c1 [Example 168, 2-{6-[2-(4-Bromo-2,6-difluoro-phenyl)-ethylamino]-pyrimidin-4-yl}-1H-indole-5-carboxylic acid]
IC50 (PTGER2 (EP2)): 190 nM | IC50 (PTRGER4 (EP4)): 196 nM | IC50 (EP2): 1690 nM | IC50 (EP4): 2000 nM

O=C(O)c1ccc2cc(-c3cc(NCCc4c(F)cc(Br)cc4F)ncn3)[nH]c2c1 [Example 169, 2-{6-[2-(4-Bromo-2,6-difluoro-phenyl)-ethylamino]-pyrimidin-4-yl}-1H-indole-6-carboxylic acid]
IC50 (PTGER2 (EP2)): 21 nM | IC50 (PTRGER4 (EP4)): 457 nM | IC50 (EP2): 74 nM | IC50 (EP4): 1380 nM

COc1cc(-c2cc(NCCc3c(F)cc(Br)cc3F)ncn2)ccc1-c1cc(O)no1 [Example 174, 5-(4-{6-[2-(4-Bromo-2,6-difluoro-phenyl)-ethylamino]-pyrimidin-4-yl}-2-methoxy-phenyl)-isoxazol-3-ol]
IC50 (PTGER2 (EP2)): 36 nM | IC50 (PTRGER4 (EP4)): 108 nM | IC50 (EP2): 265 nM | IC50 (EP4): 94 nM
